The test relates to H5V cells. Briefly: Phototoxicity assay (PDT efficacy at two incubation times), neutral red survival. The class given is cell-based, mouse. The settings on record: for pIC50: then 10 min illumination, 12 J/cm^2. On the procedure:
H5V cells (40×10^3/well) were cultured in 96-well plates for 24 h to ˜80% confluence. To determine phototoxicity, the culture medium was replaced with 100 μl/well medium, in the absence or presence of 10^−8 to 10^−6 M sensitizer, and incubated in the dark for 15 min or 3 h in the culture incubator. The plates (PDT group) were then placed in the light field at room temperature and illuminated from the bottom for 10 min (800>λ>650 nm, 12 J/cm^2). After illumination, the medium was changed to fresh culture medium. The cultures were then placed in the culture incubator and cell survival was determined 24 h later, using the neutral red survival assay described below.
Following 24 h post PDT the culture medium in the wells was replaced with 100 μl fresh medium containing 40 μg/ml neutral red. The plate was incubated for 1.5 h in a dark culture incubator. The medium was aspirated and the cells washed with 100 μl of solution containing 1% CaCl2 and 0.5% formaldehyde, which removes the unincorporated dye and fixes the cells to the substratum. The dye was then extracted from the cells into the supernatant upon addition of 100 μl 1% glacial acetic acid in 50% ethanol. After 1-2 min at room temperature, the optical density of the wells was determined in a microplate spectrophotometer using a 570 nm filter. After subtraction of assay blanks, net optical density was computed as the average value of triplicate determinations. Cell survival was calculated as the percent of the dye accumulated in the untreated control. To determine cell survival data was plotted against sensitizer concentration. These curves were then used to calculated LD50 values.
Following synthesis, the compounds described in the Examples 23 to 75 above were purified, divided into equal aliquots and lyophilized for storage (desiccated at −20° C.). The exact material content was determined by HPLC-diode array detection, and the PDT efficacy was evaluated at two incubation times as described in the experimental section.

Where [1] appears, read: 15 min incubation in the dark, read-out: IC50 15 min.
The mark [2] stands for this setting: 3 h incubation in the dark, read-out: IC50 3 hours.

pIC50: −log10 of the molar value. Like-named read-outs stand apart in the source and are kept apart here.

On to `CC[C@H]1C2=NC(=Cc3c(C(C)=O)c(C)c4[n]3[Pd][n]3c(c(C)c(C(=O)NCCN5CCOCC5)c3=C(CC(=O)OC)C3=NC(=C4)[C@@H](C)[C@@H]3CCC(=O)O)=C2)[C@@H]1C` [Compound 29, Palladium 3^1-oxo-15-methoxycarbonylmethyl-Rhodobacteriochlorin-13^1-(2-morpholino-N-ethyl)amide], for which the pIC50 (as a rule, −log10 of the IC50, conventionally taken in molar units) by setting is: under setting [1], 5.72; under setting [2], 5.72.
Turning to `CC[C@H]1C2=NC(=Cc3c(C(C)=O)c(C)c4[n]3[Pd][n]3c(c(C)c(C(=O)NCCN(C)C)c3=C(CC(=O)OC)C3=NC(=C4)[C@@H](C)[C@@H]3CCC(=O)O)=C2)[C@@H]1C` [Compound 25, Palladium 3^1-oxo-15-methoxycarbonylmethyl-Rhodobacteriochlorin-13^1-(2-N^2-dimethylaminoethyl)amide], the negative logarithm of the IC50 (pIC50) was 5.96 under setting [1] and 6.12 under setting [2].
The like results for `CC[C@H]1C2=NC(=Cc3c(C(C)=O)c(C)c4[n]3[Pd][n]3c(c(C)c(C(=O)NCCN(CCN)CCN)c3=C(CC(=O)OC)C3=NC(=C4)[C@@H](C)[C@@H]3CCC(=O)NCCN(CCN)CCN)=C2)[C@@H]1C` [Compound 43, Palladium 3^1-oxo-15-methoxycarbonylmethyl-Rhodobacteriochlorin-13^1,17^3-di([2-bis(2-aminoethyl)amino]ethyl)amide] were, in that order, 6.22 and 6.74.
For the compound “Palladium 3^1-oxo-15-methoxycarbonylmethyl-Rhodobacteriochlorin-13^1-(3-aminopropyl)amide-17^3-(2,3-dihydroxypropyl)amide [Compound 60]”, the pIC50 is 6.21 under setting [1] and 6.62 under setting [2].
Turning to `CC[C@H]1C2=NC(=Cc3c(C(C)=O)c(C)c4[n]3[Pd][n]3c(c(C)c(C(=O)NCCNCCN(CC)CC)c3=C(CC(=O)OC)C3=NC(=C4)[C@@H](C)[C@@H]3CCC(=O)O)=C2)[C@@H]1C` [Compound 31, Palladium 3^1-oxo-15-methoxycarbonylmethyl-Rhodobacteriochlorin-13^1-(2-[(2-N^2-diethylaminoethyl)amino]ethyl)amide], the pIC50 under setting [1] is 5.59 and the negative-log IC50 (pIC50) under setting [2] was 6.22.
The like results for `CC[C@H]1C2=NC(=Cc3c(C(C)=O)c(C)c4[n]3[Pd][n]3c(c(C)c(C(=O)NCC(O)CO)c3=C(CC(=O)OC)C3=NC(=C4)[C@@H](C)[C@@H]3CCC(=O)NCCNCCN(CC)CC)=C2)[C@@H]1C` (stereo partly drawn) [Compound 52, Palladium 3^1-oxo-15-methoxycarbonylmethyl-Rhodobacteriochlorin-13^1-(2,3-dihydroxypropyl)amide-17^3-(2-[(2-N^2-diethylaminoethyl)amino]ethyl)amide] were, in that order, 6.08 and 6.05.
Consider `CC(=O)[O-].CC(=O)[O-].CC[C@H]1C2=NC(=Cc3c(C(C)=O)c(C)c4[n]3[Pd][n]3c(c(C)c(C(=O)NCC[N+](C)(C)C)c3=C(CC(=O)OC)C3=NC(=C4)[C@@H](C)[C@@H]3CCC(=O)NCC[N+](C)(C)C)=C2)[C@@H]1C` [Compound 33, Palladium 3^1-oxo-15-methoxycarbonylmethyl-Rhodobacteriochlorin-13^1, 17^3-di(2-N^3-trimethylammoniumethyl)amide diacetate salt], for which the pIC50 reads like this: under setting [1], 6.12; under setting [2], 6.35.
Turning to `CCC1c2cc3[n-]c(c(CC(=O)OC)c4nc(cc5[n-]c(cc(n2)C1C)c(C(C)=O)c5C)C(C)C4CCC(=O)NCCN1CCNCC1)c(C(=O)NCCN1CCNCC1)c3C.[Pd+2]` (stereo not drawn) [Compound 41, Palladium 3^1-oxo-15-methoxycarbonylmethyl-Rhodobacteriochlorin-13^1, 17^3-di(2-piperazino-N-ethyl)amide], the pIC50 by setting is: under setting [1], 5.95; under setting [2], 6.34.
`CC[C@H]1C2=NC(=Cc3c(C(C)=O)c(C)c4[n]3[Pd][n]3c(c(C)c(C(=O)NCC(O)CO)c3=C(CC(=O)OC)C3=NC(=C4)[C@@H](C)[C@@H]3CCC(=O)NCCN(C)C)=C2)[C@@H]1C` (stereo partly drawn) [Compound 49, Palladium 3^1-oxo-15-methoxycarbonylmethyl-Rhodobacteriochlorin-13^1-(2,3-dihydroxypropyl)amide-17^3-(2-N^2-dimethylaminoethyl)amide]: the pIC50 runs as follows: under setting [1], 5.94; under setting [2], 6.24.
Take `CC[C@H]1C2=NC(=Cc3c(C(C)=O)c(C)c4[n]3[Pd][n]3c(c(C)c(C(=O)NCCCNCCCN)c3=C(CC(=O)OC)C3=NC(=C4)[C@@H](C)[C@@H]3CCC(=O)O)=C2)[C@@H]1C` [Compound 32, Palladium 3^1-oxo-15-methoxycarbonylmethyl-Rhodobacteriochlorin-13^1-(3-[(3-aminopropyl)amino]propyl)amide]: the pIC50 under setting [1] is 6.22 and the negative logarithm of the IC50 (pIC50) under setting [2] was 6.60. In addition, the “PDT activity relative to compound 24” value (at both incubation times) is 4-5 times.
`CC[C@H]1C2=NC(=Cc3c(C(C)=O)c(C)c4[n]3[Pd][n]3c(c(C)c(C(=O)NCCN5CCNCC5)c3=C(CC(=O)OC)C3=NC(=C4)[C@@H](C)[C@@H]3CCC(=O)O)=C2)[C@@H]1C` [Compound 30, Palladium 3^1-oxo-15-methoxycarbonylmethyl-Rhodobacteriochlorin-13^1-(2-piperazino-N-ethyl)amide]: the negative-log IC50 (pIC50) was 5.77 under setting [1] and 6.21 under setting [2].
The like results for `CC(=O)O.CC[C@H]1C2=NC(=Cc3c(C(C)=O)c(C)c4[n]3[Pd][n]3c(c(C)c(C(=O)NCCN(C)C)c3=C(CC(=O)OC)C3=NC(=C4)[C@@H](C)[C@@H]3CCC(=O)NCCCO)=C2)[C@@H]1C` [Compound 66, Palladium 3^1-oxo-15-methoxycarbonylmethyl-Rhodobacteriochlorin-13^1-(2-N^2-dimethylaminoethyl)amide-17^3-(3-hydroxypropyl)amide] were, in that order, 6.26 and 6.70.
The like results for `CC[C@H]1C2=NC(=Cc3c(C(C)=O)c(C)c4[n]3[Pd][n]3c(c(C)c(C(=O)NCCN(CCN)CCN)c3=C(CC(=O)OC)C3=NC(=C4)[C@@H](C)[C@@H]3CCC(=O)O)=C2)[C@@H]1C` [Compound 28, Palladium 3^1-oxo-15-methoxycarbonylmethyl-Rhodobacteriochlorin-13^1-([2-bis(2-aminoethyl)amino]ethyl)amide] were, in that order, 5.89 and 6.42.
Turning to `CC[C@H]1C2=NC(=Cc3c(C(C)=O)c(C)c4[n]3[Pd][n]3c(c(C)c(C(=O)NCCN(C)C)c3=C(CC(=O)OC)C3=NC(=C4)[C@@H](C)[C@@H]3CCC(=O)NCC(O)CO)=C2)[C@@H]1C` (stereo partly drawn) [Compound 50, Palladium 3^1-oxo-15-methoxycarbonylmethyl-Rhodobacteriochlorin-13^1-(2-N^2-dimethylaminoethyl)amide-17^3-(2,3-dihydroxypropyl)amide], the negative logarithm of the IC50 (pIC50) under setting [1] was 6.33 and the negative logarithm of the IC50 (pIC50) under setting [2] was 6.77.
The like results for `CC(=O)O.CC(=O)O.CC[C@H]1C2=NC(=Cc3c(C(C)=O)c(C)c4[n]3[Pd][n]3c(c(C)c(C(=O)NCC(O)CO)c3=C(CC(=O)OC)C3=NC(=C4)[C@@H](C)[C@@H]3CCC(=O)NCCCCNc3ccccn3)=C2)[C@@H]1C` (stereo partly drawn) [Compound 74, Palladium 3^1-oxo-15-methoxycarbonylmethyl-Rhodobacteriochlorin-13^1-(2,3-dihydroxypropyl)amide-17^3-(4-N-(2′-pyridyl)aminobutyl)amide] were, in that order, 6.13 and 6.54.
The like results for “Palladium 3^1-oxo-15-methoxycarbonylmethyl-Rhodobacteriochlorin-13^1-(2-N^2-dimethylaminoethyl)amide-17^3-((R)-2-hydroxypropyl)amide [Compound 68]” were, in that order, 6.30 and 6.80.
The like results for “Palladium 3^1-oxo-15-methoxycarbonylmethyl-Rhodobacteriochlorin-13^1-(2-N^2-diethylaminoethyl)amide-17^3-(2,3-dihydroxy propyl)amide [Compound 62]” were, in that order, 6.20 and 6.72.
As to `CC(=O)O.CC[C@H]1C2=NC(=Cc3c(C(C)=O)c(C)c4[n]3[Pd][n]3c(c(C)c(C(=O)NCCN(C)C)c3=C(CC(=O)OC)C3=NC(=C4)[C@@H](C)[C@@H]3CCC(=O)NC[C@H](C)O)=C2)[C@@H]1C` [Compound 69, Palladium 3^1-oxo-15-methoxycarbonylmethyl-Rhodobacteriochlorin-13^1-(2-N^2-dimethylaminoethyl)amide-17^3-((S)-2-hydroxypropyl)amide], the pIC50 by setting is: under setting [1], 6.30; under setting [2], 6.80.
The like results for `CC[C@H]1C2=NC(=Cc3c(C(C)=O)c(C)c4[n]3[Pd][n]3c(c(C)c(C(=O)NCCN5CCOCC5)c3=C(CC(=O)OC)C3=NC(=C4)[C@@H](C)[C@@H]3CCC(=O)NCCN3CCOCC3)=C2)[C@@H]1C` [Compound 40, Palladium 3^1-oxo-15-methoxycarbonylmethyl-Rhodobacteriochlorin-13^1, 17^3-di(2-morpholino-N-ethyl)amide] were, in that order, 6.15 and 6.46.

These data come from US8207154B2, “Catatonic bacteriochlorophyll derivatives” (Yeda Research and Development Co., Ltd., priority 2005, dated 2012).
